# pIC50: −log10 of the molar value.
# System: SARS-CoV-2
# Experiment: microbe, parasite or virus in culture
# Details: Severe acute respiratory syndrome coronavirus 2, Vero C1008, 48 h; for IC50: read-out: pIC50 (converted)
SMILES,pIC50,IC50 [µM]
CC(C)(C)CC(C)(C)c1ccc(OCOCCOCCO)c(Cc2cc(C(C)(C)CC(C)(C)C)cc(Cc3cc(C(C)(C)CC(C)(C)C)ccc3OCOCCOCCO)c2OCOCCOCCO)c1,< 4.70,> 20
Cn1c([N+](=O)[O-])cnc1/C=C/c1ccnc(N)n1 [AZANIDAZOLE],< 4.70,> 20
OCc1ccccn1 [PICONOL],< 4.70,> 20
Cc1cnc(N2CC3(CCOCC3)C2)c(C(=O)Nc2ccc(C(=O)N3CCc4cc(C(=O)Nc5c(C)cccc5F)sc4-c4ccccc43)cc2)c1 [PC-786],< 4.70,> 20
COc1c(C(O)CCc2ccc(O)cc2)c(OCCN2CCCCC2)c(OC)c2occc12 (stereo not given) [PIPROFUROL],< 4.70,> 20
C[C@@H]1N=C(N)O[C@@H]1c1ccccc1 (relative stereo),< 4.70,> 20
NC1=NCC(c2ccc(C(F)(F)F)cc2)O1 (stereo not given) [FLUMINOREX],< 4.70,> 20
CC1(C)[C@@H](OC(=O)CCC(=O)O)CC[C@]2(C)[C@H]3C(=O)C=C4[C@@H]5C[C@@](C)(C(=O)O)CC[C@]5(C)CC[C@@]4(C)[C@]3(C)CC[C@@H]12 [CARBENOXOLONE],< 4.70,> 20
O=C1CN=C(c2ccccc2)c2c(sc3c2CCCC3)N1 [BENTAZEPAM],< 4.70,> 20
C#C[C@]1(O)CC[C@H]2[C@@H]3CCC4=CC(=NO)CC[C@@H]4[C@H]3CC[C@@]21CC,< 4.70,> 20
O=c1[nH]c(=O)n(Cl)c(=O)n1Cl [TROCLOSENE],< 4.70,> 20
COC(=O)OCOc1c2n(ccc1=O)N([C@@H]1c3ccccc3SCc3c1ccc(F)c3F)[C@@H]1COCCN1C2=O [BALOXAVIR MARBOXIL],< 4.70,> 20
CC(=O)O[C@H]1CC[C@@]2(C)[C@H](CC[C@@H]3[C@@H]2CC[C@]2(C)C(=O)CC[C@@H]32)C1,< 4.70,> 20
CC(C)CC(N)=O [ISOVALERAMIDE],< 4.70,> 20
O=c1ccc2ccccc2o1 [COUMARIN],< 4.70,> 20
CN(C)S(=O)(=O)c1ccc2c(c1)N(C1CN3CCC1CC3)c1ccccc1S2 (stereo not given) [QUISULTAZINE],< 4.70,> 20
O=C(O)C=Cc1ccc(O)c(O)c1,< 4.70,> 20
CC(C)(C)NCC(O)c1cc(O)cc(O)c1 (stereo not given) [TERBUTALINE],< 4.70,> 20
Fc1ccc2[nH]c3c(c2c1)CN(CCCc1cccnc1)CC3 [GEVOTROLINE],< 4.70,> 20
COC(=O)C1=COC(C)C2CN3CCC4(C(=O)Nc5ccccc54)C3CC12 (stereo not given),< 4.70,> 20
O=C(O)CC/C=C\C[C@H]1CO[C@@H](c2ccccc2Cl)O[C@H]1c1ccccc1O,< 4.70,> 20
[2H]C([2H])(CCCCCCCC)C([2H])([2H])CCCCCC(=O)OC1CCCn2c1nc(C)c(CCN1CCC(c3noc4cc(F)ccc34)CC1)c2=O (stereo not given),< 4.70,> 20
COc1ccc(NS(=O)(=O)c2ccc(N)cc2)nn1 [SULFAMETHOXYPYRIDAZINE],< 4.70,> 20
O=C(O)c1cc(=O)c2c(OCC(O)COc3cccc4oc(C(=O)O)cc(=O)c34)cccc2o1 [CROMOLYN],< 4.70,> 20

SMILES,pIC50,IC50 [µM]
NC[C@H]1O[C@H](O[C@H]2[C@H](O[C@@H]3O[C@H](CO)[C@@H](O)[C@H]3O)[C@@H](O)[C@H](N)C[C@@H]2N)[C@H](N)[C@@H](O)[C@@H]1O [RIBOSTAMYCIN],< 4.70,> 20
OCCN(CCO)c1nc(N2CCCCC2)c2nc(N(CCO)CCO)nc(N3CCCCC3)c2n1 [DIPYRIDAMOLE],< 4.70,> 20
COC1C(OC(=O)/C=C/C=C/C=C/C=C/C(=O)O)CCC2(CO2)C1C1(C)OC1CC=C(C)C (stereo not given),< 4.70,> 20
COc1ccc(S(=O)(=O)N(C(C)=O)c2ccccc2/C=C/c2cc[n+]([O-])cc2)cc1 [HMN-214],< 4.70,> 20
CCCCCCCCCCCCCCCCCC(=O)O [STEARIC ACID],< 4.70,> 20
CCn1cc(C(=O)O)c(=O)c2cc(F)c(N3CCNC(C)C3)c(F)c21 (stereo not given) [LOMEFLOXACIN],< 4.70,> 20
COc1ccc(C(=O)NCc2ccc(OCCN(C)C)cc2)cc1OC [ITOPRIDE],< 4.70,> 20
C=C1CC23CCC4C(C)(C(=O)O)CCCC4(C)C2CCC1(OC1OC(CO)C(O)C(O)C1OC1OC(CO)C(O)C(O)C1O)C3 (stereo not given),< 4.70,> 20
CCCSc1nc(N[C@@H]2C[C@H]2c2ccc(F)c(F)c2)c2nnn([C@@H]3C[C@H](OCCO)[C@@H](O)[C@H]3O)c2n1 [TICAGRELOR],< 4.70,> 20
CN(C)CC/C=C1\c2ccccc2CN(C)c2ccccc21,< 4.70,> 20
Cn1cc(-c2cnn3c(N)c(Br)c([C@@H]4CCCNC4)nc23)cn1 [SCH-900776],< 4.70,> 20
CCOc1ccc(/C=C2\NCCc3cc(OCC)c(OCC)cc32)cc1OCC [DROTAVERINE],< 4.70,> 20
Cc1ccc(/C(=C\CN2CCCC2)c2ccccn2)cc1 [TRIPROLIDINE],< 4.70,> 20
[O-][S+](c1cc(Cl)cc(Cl)c1O)c1cc(Cl)cc(Cl)c1O [BITHIONOLOXIDE],< 4.70,> 20
CC12CCC(=O)C[C@@H]1CCC1C2CCC2(C)C1CCC2(C)O (stereo not given in full),< 4.70,> 20
CC(=O)Oc1ccc(C(=C2CCCCC2)c2ccc(OC(C)=O)cc2)cc1 [CYCLOFENIL],< 4.70,> 20
O=C1C(Cl)=C(Cl)C(=O)c2c(O)ccc(O)c21,< 4.70,> 20
CCC(=O)C(CC(C)N1CCOCC1)(c1ccccc1)c1ccccc1 (stereo not given) [PHENADOXONE],< 4.70,> 20
CC(C)(C)NCC(O)c1cc(Cl)c(N)c(Cl)c1 (stereo not given) [CLENBUTEROL],< 4.70,> 20
CCN1CC(NC(=O)c2cc(Cl)c(N)cc2OC)CN1CC [DAZOPRIDE],< 4.70,> 20
COc1ccc2c(OC)c3ccoc3nc2c1OC [SKIMMIANINE],< 4.70,> 20
Fc1ccc(C(OCCN2CCN(CCCc3ccccc3)CC2)c2ccc(F)cc2)cc1 [VANOXERINE],< 4.70,> 20
CCC1(c2ccccc2)C(=O)NCNC1=O [PRIMIDONE],< 4.70,> 20
O=C(O)C1(C(=O)O)CCC1,< 4.70,> 20

SMILES,pIC50,IC50 [µM]
COc1ccc(-n2[nH]c(=O)c3[nH]c4cc(Cl)ccc4c(=O)c3c2=O)c(C)c1,< 4.70,> 20
CN(C)CCC=C1c2ccccc2C(C)(C)c2ccccc21,< 4.70,> 20
CN(C)Cc1ccc(CSCCNC2=NS(=O)(=O)c3cscc32)o1,< 4.70,> 20
O=c1[nH]c2ccccc2n1CCCN1CCC(n2c(=O)[nH]c3cc(Cl)ccc32)CC1 [DOMPERIDONE],< 4.70,> 20
COc1ccccc1N1CCN(CCCC(=O)c2ccc(F)cc2)CC1 [FLUANISONE],< 4.70,> 20
O=C(O)CC(=O)O [MALONIC ACID],< 4.70,> 20
CCN(CC)CCN(CC)CC(=O)Nc1ccccc1Cl [CLODACAINE],< 4.70,> 20
O=C(O)COc1nn(Cc2ccccc2)c2ccccc12 [BENDAZAC],< 4.70,> 20
CC[C@H]1OC(=O)[C@H](C)[C@@H](O[C@H]2C[C@@](C)(OC)[C@@H](O)[C@H](C)O2)[C@H](C)[C@@H](O[C@@H]2O[C@H](C)C[C@H](N(C)C)[C@H]2OC(C)=O)[C@](C)(O)C[C@@H](C)C(=O)[C@H](C)[C@@H](O)[C@]1(C)O [2'-O-ACETYLERYTHROMYCIN A],< 4.70,> 20
COC(=O)C[C@](O)(CCCC(C)(C)O)C(=O)O[C@@H]1C(OC)=C[C@]23CCCN2CCc2cc4c(cc2[C@H]13)OCO4 [OMACETAXINE MEPESUCCINATE],< 4.70,> 20
Cc1nc2n(c(=O)c1CCN1CCC(c3noc4cc(F)ccc34)CC1)CCCC2 [RISPERIDONE],< 4.70,> 20
Cc1nnc(SCC2=C(C(=O)O)N3C(=O)C(NC(=O)C(N)c4ccc(O)cc4)C3SC2)s1 (stereo not given),< 4.70,> 20
C[C@H]1c2cccc(O)c2C(=O)C2=C(O)[C@]3(O)C(=O)C(C(N)=O)=C(O)[C@@H](N(C)C)[C@@H]3[C@@H](O)[C@@H]21 [DOXYCYCLINE],< 4.70,> 20
CC(C)[C@H](N)C(=O)N1CCC[C@H]1B(O)O [TALABOSTAT],< 4.70,> 20
C[C@]12CCC(=O)C[C@H]1CC[C@@H]1[C@@H]2CC[C@]2(C)[C@@H](C(=O)COC(=O)CCC(=O)O)CC[C@@H]12 [HYDROXYDIONE SUCCINIC ACID],< 4.70,> 20
CC(=O)Nc1cccc2c1c(Sc1ccc(Cl)cc1)c(C)n2CC(=O)O [AZD1981],< 4.70,> 20
CCN1CCCC(OC(=O)C(c2ccccc2)c2ccccc2)C1 (stereo not given) [PIPERIDOLATE],< 4.70,> 20
COC(=O)CCC(C)C1CCC2C3CC[C@@H]4C[C@H](O)CC[C@]4(C)C3C[C@H](O)[C@]12C (stereo not given in full),< 4.70,> 20
CC(=O)O[C@H]1C[C@@H]2CC[C@@H]3[C@H](CC[C@@]4(C)[C@H]3C[C@H]([N+]3(C)CCCCC3)[C@@H]4OC(C)=O)[C@@]2(C)C[C@@H]1N1CCCCC1 [VECURONIUM],< 4.70,> 20
NS(=O)(=O)c1cc2c(cc1Cl)NCNS2(=O)=O [HYDROCHLOROTHIAZIDE],< 4.70,> 20
Nc1ccc(S(=O)(=O)c2ccc(NCC(=O)O)cc2)cc1 [ACEDIASULFONE],< 4.70,> 20
CC1(C)C(=O)Nc2cc3[nH]c(-c4ccncc4)nc3cc21 [ADIBENDAN],< 4.70,> 20
